Measurements as given in US6001880A, “Alkylenediamine derivative, anti-ulcer drug, and antibacterial drug” (Shiseido Co., Ltd., priority 1997, dated 1999).

Tests used:
[1] = tested on: stress ulcer formation in rats; assay: WIS: Restraint and Water Immersion Stress-Induced Ulcer Inhibition Test; format: in vivo, rat (male Crj:SD or Slc:SD); conditions: 100 mg/kg oral, 10 minutes before 7 h restraint and water immersion (21° C.)
Protocol: WIS: Restraint and Water Immersion Stress-Induced Ulcer Inhibition Test
The degree of inhibition of the stress ulcer formation is tested.
Male Crj:SD or Slc:SD rats (6 to 7-week-old) were fasted overnight, but allowed free access to water. Each group has 5 to 8 of these rats. The sample compound was dissolved or suspended in an aqueous solution of 0.3% sodium carboxymethylcellulose or 0.05% Tween 80 and then was orally administered (100 mg/10 ml/kg). To a control group, the vehicle was administered. 10 minutes later, the rats were placed in a stress cage and immersed to the level of xipfoid process in a water bath (21° C.) for 7 hours. At the end of the stress, the rats were sacrificed by inhalation of ether or carbon dioxide. Then, the stomach of each was removed, inflated by injecting 10 ml of 5% formalin neutral buffer solution, and immersed in 1% formalin neutral buffer solution for 30 minutes or more to be fixed. The stomach was incised along the greater curvature and then the length of each erosion in the glandular portion was determined under dissecting microscope. The sum of the length of erosions per stomach was defined as ulcer index (UI).
The effect obtained when 100 mg/kg of the sample compound had been administered was expressed as ulcer formation inhibitory rate (%) as follows:
ulcer formation inhibitory rate (%)=(1-(UI in sample group/UI in control

[2] = tested on: isolated gastric fundic gland; assay: CAP: Acid Secretion Inhibition Test In Vitro ([14C]-aminopyrine uptake); format: cell-based, rabbit (male Japanese White); conditions: Oryctolagus cuniculus; final concentration 10^-5 M; histamine 10^-5 M stimulation; read-out: CAP: acid secretion inhibitory rate
Protocol: CAP: Acid Secretion Inhibition Test In Vitro
The acid secretion inhibitory activity in a cell level is studied. It can also be used for studying the mechanism of the effect.
First, an isolated gastric fundic gland sample was prepared. Namely, a male Japanese White rabbit (2.5 to 3 kg) was anesthetized to death with Nembutal™ and then the abdomen was incised. Immediately thereafter, the stomach was removed and, after its pyloric and cardiac antrum were severed, incised along its greater curvature into two sheets. The gastric contents adhering to the mucosal surface was washed out with ice-cooled PBS (-) and then carefully washed therein. The gastric wall was spread on a cork board with its mucosal surface facing up and the feed and mucus thereon were completely removed with sterile gauze. The mucosa was separated therefrom by a spatula and then collected in ice-cooled PBS (-). After being washed twice with PBS (-), the mucosa was minced into 2-3 mm^3 pieces by scissors. These pieces were further washed twice with a nutrient solution. The nutrient solution comprises 132.4 mM of NaCl, 5.4 mM of KCl, 5 mM of Na2 HPO4. 12H2 O, 1 mM of NaH2 PO4.2H2 O, 1.2 mM of MgSO4, 1 mM of CaCl2, 25 mM of HEPES, 2 mg/ml of glucose, and 1 mg/ml of BSA.
Into 70 ml of the nutrient solution containing 1 mg/ml of collagenase, minced mucosal pieces were dispersed and intensely stirred in a conical flask with a stirrer at 37° C. for 40 to 60 minutes. During this period, 100% O2 was sprayed on the nutrient solution surface and the pH was appropriately measured such that it was immediately adjusted to pH 7.4, when the value was therebelow, with a base. The nutrient solution was added to the reaction solution so as to attain the total amount of about 200 ml. After being filtered through a mesh, the suspension was divisionally introduced into 50 ml centrifuge tubes and left for 15 minutes such that gastric fundic gland was deposited. The supernatant was repeatedly removed by an aspirator, dispersed in the nutrient solution, and then left such that the gastric fundic gland was washed three times. At this time, without using a pipette, the suspension was alternately introduced into two centrifuge tubes so as to effect dispersion. The number of cells was counted under microscope and adjusted to 1.6×10^6 cells/ml.
Then, [^14 C]-aminopyrine uptake test was performed. After an Eppendorf tube was weighed, 10 μl (final concentration: 10^-5 M) of histamine dissolved in the above-mentioned nutrient solution, 10 μl (final concentration: […]) of the test compound dissolved in DMSO, and 10 μl (final concentration: 0.05 μCi/ml) of [^14 C]-aminopyrine diluted with the nutrient solution were introduced therein and then 970 μl of the isolated gastric fundic gland suspension prepared above was added thereto. Subsequently, this mixture was shaken at 37° C. for 40 minutes at 125 cycles/minute. After being centrifuged for 30 seconds, 200 μl of its supernatant was collected into a mini-vial, while the rest was removed by an aspirator. The gland pellet was completely dried as the tube with its lid being opened was kept for one night in a drying oven at 80° C. and then the lid was closed and the weight was determined at room temperature. Then 100 μl of 1N KOH was added thereto and the tube with its lid being closed was treated at 60° C. for 1 to 2 hours so as to dissolve the pellet. Then, the contents thereof were transferred to a mini-vial. Into the mini-vial containing the supernatant or gland pellet, 4 ml of Atomlite™ was added and then the radioactivity was measured by a liquid scintillation counter. Here, after the radioactivity of the gland pellet was corrected by using a sample in which 20 mM of NaSCN was added so as to cancel the hydrogen ion concentration gradient, the integration ratio of aminopyrine specifically trapped by the gland pellet was calculated. This experiment was performed in duplicate.
Here, its principle will be briefly explained. […]

[3] = MTT: Cell Damaging and Protecting Effect Test; format: cell-based, rabbit (male Japanese White); conditions: rabbit, gastric corpus mucosa cells, final concentration 10^-4 M, smaller value is better, read-out: MTT: cell damaging rate
From the text: MTT: Cell Damaging and Protecting Effect Test
It is confirmed that there is no toxicity in cell level. Those having a toxicity in cell level are inappropriate as an anti-ulcer drug.
A male Japanese White rabbit (2.5 to 3 kg) was anesthetized to death by Nembutal™ and, immediately thereafter, its stomach was removed. The greater curvature of the stomach was incised so as to remove the stomach contents therefrom. After the mucosal surface was washed with HBSS (Hanks' Balanced Salt Solution), the stomach in ice-cooled HBSS was transferred to a laboratory. Then, after the pyloric antrum was removed, the gastric corpus mucosa was separated by a spatula and then minced into 2 to 3 mm^3 pieces in BME (Basal Medium Eagle). Thereafter, these pieces were shaken at 120 to 130 cycles/minute for 15 minutes at 37° C. in BME 60 ml containing 280 U/ml of dispase and 30 to 50 U/ml of collagenase. Here, the concentration of collagenase was appropriately changed for each lot in view of the state of cells. The pieces were washed twice with EBSS (Earle's Balanced Salt Solution) containing 1 mM of EDTA and then shaken in MEM (Minimum Essential Medium) containing 1 mM of EDTA at 37° C. for 5 minutes. Subsequently, they were shaken in the dispase and collagenase having the same concentrations as those mentioned above for 15 minutes so as to remove the supernatant and then further shaken at 37° C. for 50 to 60 minutes at 120 to 130 cycles/minute. Then, after being washed twice with HBSS, Ham F12 containing 2% of Ultrocer G™ was used to attain the concentration of 1×10^6 cells/ml. Thus formed suspension was dispensed in each well of a 96-well plate by 200 μl. The plate was incubated in the atmosphere composed of 5% CO2 and 95% air at 37° C. for three days so as to attain a confluent state and then subjected to MTT assay.
The sample compound was dissolved in DMSO so as to attain a concentration of 10^-2 M and then diluted with HBSS containing 2% of Ultrocer G™ so as to attain a final concentration of 10^-4 M. To each group, which 8 wells were used for, 10 μl of MTT reagent was added immediately after 100 μl of the medium in each well was exchanged for same volume of the resulting solution of the sample compound. After being incubated in an atmosphere composed of 5% CO2 and 95% air at 37° C. for 4 hours, thus formed solution was centrifuged and then its supernatant was discarded. Subsequently, 100 μl of 100% ethanol was added to the residue so as to dissolve MTT formazan. Then, the absorbance (OD: 570 to 630) was measured by a microplate reader. This method utilizes a phenomenon in which MTT is changed to MTT formazan only by mitochondria of living cells so as to change color.
The cell damaging or cell protecting effect of the sample compound at the final concentration of 10^-4 M was expressed as cell damaging rate (%) as follows:
cell damaging rate (%)=(1-(absorbance in sample group/absorbance in control
Accordingly, the smaller value is better in the cell damaging rate.

| SMILES | WIS: ulcer formation inhibitory rate [1] | inhibition at 10 µM [2] | cytotoxicity at 4 h, 100 µM [3] |
| --- | --- | --- | --- |
| CCN(CC)CCNC(=O)c1cccc(OC/C=C(\C)CCC=C(C)C)c1 [Example 1] | 72% | – | – |
| CCN(CC)CCNC(=O)c1ccc(OC/C=C(\C)CCC=C(C)C)cc1 [Example 4] | 83% | – | – |
| CCN(CC)CCNC(=O)c1ccc(OC/C=C(\C)CC/C=C(\C)CCC=C(C)C)cc1 [Example 6] | 52% | 97.9% | – |
| CC(C)=CCC/C(C)=C/COc1ccc(C(=O)NCCN(CC(C)C)CC(C)C)cc1 [Example 9] | 40% | – | 15% |
| CC(C)=CCC/C(C)=C/COc1ccc(C(=O)NCCN(C)CC(C)C)cc1 [Example 10] | 65% | – | – |
| CCCCN(C)CCNC(=O)c1ccc(OC/C=C(\C)CCC=C(C)C)cc1 [Example 11] | 45% | 100% | – |
| CC(C)=CCC/C(C)=C/COc1ccc(C(=O)NCCN(C)C(C)(C)C)cc1 [Example 12] | 34% | 99.9% | – |
| CCN(CC)CCNC(=O)c1ccc(OC/C=C(\C)CCC=C(C)C)c(OC/C=C(\C)CCC=C(C)C)c1 [Example 18] | 37% | – | – |
| CCN(CC)CCNC(=O)c1cc(OC/C=C(\C)CCC=C(C)C)cc(OC/C=C(\C)CCC=C(C)C)c1 [Example 19] | 69% | – | – |
| CCN(CC)CCNC(=O)c1cc(OCC=C(C)C)c(OCC=C(C)C)c(OCC=C(C)C)c1 [Example 23] | 81% | – | – |
| CC(C)=CCOc1cc(C(=O)NCCN(C)C)cc(OCC=C(C)C)c1OCC=C(C)C [Example 24] | 70% | – | – |
| CC(C)=CCC/C(C)=C/CNc1ccc(C(=O)NCCN(C(C)C)C(C)C)cc1 [Example 26] | 49% | 100% | – |
| CC(C)=CCC/C(C)=C/COc1ccc(C(=O)NCCN(C(C)C)C(C)C)cc1CC(C)C [Example 34] | 48% | 100% | – |
| CCN(CC)CCNC(=O)c1cc(OC)c(OCC=C(C)C)c(OC)c1 [Example 36] | 88% | – | – |
| CCN(CC)CCNC(=O)c1cc(OC)c(OC)c(OCC=C(C)C)c1 [Example 40] | 79% | – | -2% |
| COc1cc(C(=O)NCCN(C)C)cc(OC)c1OC/C=C(\C)CCC=C(C)C [Example 43] | 88% | – | 1% |

| SMILES | WIS: ulcer formation inhibitory rate [1] | inhibition at 10 µM [2] | cytotoxicity at 4 h, 100 µM [3] |
| --- | --- | --- | --- |
| CC(C)=CCOc1ccc(C(=O)NCCN(C)C)cn1 [Example 44] | 30% | – | – |
| CC(C)=CCOc1ncccc1C(=O)NCCN(C)C [Example 45] | 41% | – | – |
| CCN(CC)CCNC(=O)c1cccnc1OCC=C(C)C [Example 47] | 80% | – | – |
| CC(C)=CCC/C(C)=C/COc1ccc(C(=O)NCCN(C)C)cn1 [Example 49] | 38% | – | – |
| CCN(CC)CCNC(=O)c1cccnc1OC/C=C(\C)CCC=C(C)C [Example 52] | 57% | 101% | – |
| CC(C)=CCOc1cccnc1C(=O)NCCN(C)C [Example 53] | 67% | – | 1% |
| CCN(CC)CCNC(=O)c1ncccc1OCC=C(C)C [Example 54] | 78% | – | -10% |
| CC(C)=CCOc1cccnc1C(=O)NCCN(C(C)C)C(C)C [Example 55] | 97% | – | 20% |
| CC(C)N(CCNC(=O)c1ccc2c(c1)OCO2)C(C)C [Example 58] | 96% | – | 29% |
| CC(C)COc1ccc(C(=O)NCCN(C(C)C)C(C)C)cc1 [Example 60] | 98% | 97.3% | – |
| CC(C)N(CCNC(=O)c1ccc(C(C)(C)C)cc1)C(C)C [Example 61] | 94% | 97.3% | – |
| CCCCCCCCc1ccc(C(=O)NCCN(C(C)C)C(C)C)cc1 [Example 63] | 49% | 101% | – |
| CC(C)N(CCNC(=O)c1cc(C(C)(C)C)cc(C(C)(C)C)c1)C(C)C [Example 65] | 86% | – | 5% |
| CC(C)N(CCNC(=O)c1ccc(C(=O)NC(C)(C)C)cc1)C(C)C [Example 67] | 77% | – | -35% |
| CC(C)N(CCNC(=O)c1ccc(N(C)C)cc1)C(C)C [Example 70] | 66% | 101% | – |
